Source: ChEMBL document CHEMBL1201862, “PubChem BioAssay data set” (2004)
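Cultured in 96-well plates, cells were exposed to test compound for 48 hours across five concentrations. Here, GI50 denotes the concentration required for 50% inhibition of growth.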 Active and inactive are the calls of the source. Rule as the data show it: active = GI50 up to about 1.1 µM and inactive = higher.

Key:
Experiment in all cases: NCI-60 cell line screen, 48 h
CAKI-1 = system: CAKI-1
UO-31 = system: UO-31
Malme-3M = system: Malme-3M
NCI-H226 = system: NCI-H226
LOX IMVI = system: LOX IMVI
SW-620 = system: SW-620
SF-295 = system: SF-295
NCI-H522 = system: NCI-H522
MDA-MB-231 = system: MDA-MB-231
OVCAR-8 = system: OVCAR-8
EKVX = system: EKVX
786-0 = system: 786-0
OVCAR-3 = system: OVCAR-3
NCI-H23 = system: NCI-H23
CCRF-CEM = system: CCRF-CEM
COLO 205 = system: COLO 205
IGROV-1 = system: IGROV-1
M14 = system: M14
OVCAR-5 = system: OVCAR-5
HL-60 = system: HL-60
UACC-257 = system: UACC-257
A549 = system: A549
SK-OV-3 = system: SK-OV-3
SK-MEL-2 = system: SK-MEL-2
RXF 393 = system: RXF 393
DU-145 = system: DU-145
SR = system: SR
RPMI-8226 = system: RPMI-8226
HOP-92 = system: HOP-92
T47D = system: T47D
BT-549 = system: BT-549
SF-268 = system: SF-268
HCT-15 = system: HCT-15
MCF7 = system: MCF7
MDA-MB-435 = system: MDA-MB-435
HT-29 = system: HT-29
SF-539 = system: SF-539
SN12C = system: SN12C
HOP-62 = system: HOP-62
MOLT-4 = system: MOLT-4
UACC-62 = system: UACC-62
OVCAR-4 = system: OVCAR-4
SNB-19 = system: SNB-19
Hs-578T = system: Hs-578T
NCI-H460 = system: NCI-H460
SK-MEL-28 = system: SK-MEL-28
HCT-116 = system: HCT-116
K562 = system: K562
SK-MEL-5 = system: SK-MEL-5
A498 = system: A498
SNB-75 = system: SNB-75
PC-3 = system: PC-3
HCC 2998 = system: HCC 2998
NCI/ADR-RES = system: NCI/ADR-RES
ACHN = system: ACHN
TK-10 = system: TK-10
U-251 = system: U-251
KM12 = system: KM12

SMILES: CC(=O)C1=C(O)/C(=C\c2ccco2)OC1=O
- GI50 (CAKI-1): > 10 µM (inactive)
- GI50 (UO-31): > 10 µM (inactive)
- GI50 (Malme-3M): > 10 µM (inactive)
- GI50 (NCI-H226): > 10 µM (inactive)
- GI50 (LOX IMVI): > 10 µM (inactive)
- GI50 (SW-620): > 10 µM (inactive)
- GI50 (SF-295): > 10 µM (inactive)
- GI50 (NCI-H522): > 10 µM (inactive)
- GI50 (MDA-MB-231): > 10 µM (inactive)
- GI50 (OVCAR-8): > 10 µM (inactive)
- GI50 (EKVX): > 10 µM (inactive)
- GI50 (786-0): > 10 µM (inactive)
- GI50 (OVCAR-3): > 10 µM (inactive)
- GI50 (NCI-H23): > 10 µM (inactive)
- GI50 (CCRF-CEM): > 10 µM (inactive)
- GI50 (COLO 205): > 10 µM (inactive)
- GI50 (IGROV-1): > 10 µM (inactive)
- GI50 (M14): > 10 µM (inactive)
- GI50 (OVCAR-5): > 10 µM (inactive)
- GI50 (HL-60): > 10 µM (inactive)
- GI50 (UACC-257): > 10 µM (inactive)
- GI50 (A549): > 10 µM (inactive)
- GI50 (SK-OV-3): > 10 µM (inactive)
- GI50 (SK-MEL-2): > 10 µM (inactive)
- GI50 (RXF 393): > 10 µM (inactive)
- GI50 (DU-145): > 10 µM (inactive)
- GI50 (SR): > 10 µM (inactive)
- GI50 (RPMI-8226): > 10 µM (inactive)
- GI50 (HOP-92): > 10 µM (inactive)
- GI50 (T47D): > 10 µM (inactive)
- GI50 (BT-549): > 10 µM (inactive)
- GI50 (SF-268): > 10 µM (inactive)
- GI50 (HCT-15): > 10 µM
- GI50 (MCF7): > 10 µM (inactive)
- GI50 (MDA-MB-435): > 10 µM (inactive)
- GI50 (HT-29): > 10 µM (inactive)
- GI50 (SF-539): > 10 µM (inactive)
- GI50 (SN12C): > 10 µM (inactive)
- GI50 (HOP-62): > 10 µM (inactive)
- GI50 (MOLT-4): > 10 µM (inactive)
- GI50 (UACC-62): > 10 µM (inactive)
- GI50 (OVCAR-4): > 10 µM (inactive)
- GI50 (SNB-19): > 10 µM (inactive)
- GI50 (Hs-578T): > 10 µM (inactive)
- GI50 (NCI-H460): > 10 µM (inactive)
- GI50 (SK-MEL-28): > 10 µM (inactive)
- GI50 (HCT-116): > 10 µM (inactive)
- GI50 (K562): > 10 µM (inactive)
- GI50 (SK-MEL-5): > 10 µM (inactive)
- GI50 (A498): > 10 µM (inactive)
- GI50 (SNB-75): > 10 µM (inactive)
- GI50 (PC-3): > 10 µM (inactive)
- GI50 (HCC 2998): > 10 µM (inactive)
- GI50 (NCI/ADR-RES): > 10 µM (inactive)
- GI50 (ACHN): > 10 µM (inactive)
- GI50 (TK-10): > 10 µM (inactive)
- GI50 (U-251): > 10 µM (inactive)
- GI50 (KM12): > 10 µM (inactive)
